Measured values from US12692247B2, “Phenyl- and pyridopyrazole derivatives as inhibitors of DDR1” (Redx Pharma Limited, priority 2021, dated 2026).

What was measured:
Recombinant human DDR1 = target: T1, Recombinant human DDR1 (Homo sapiens, UniProt Q08345); experiment: LanthaScreen Eu Kinase Binding Assay, DDR1; details: recombinant human DDR1 (2.5 nM; aa440-876, GST tag), Kinase Tracer 178 5 nM, time-resolved fluorescence, at least two independent replicates; read-out: DDR1 pIC50 (converted)
T1 construct: Recombinant human DDR1 (2.5 nM; aa440-876 containing a GST tag)
T1 sequence (Q08345 440-876 isoform Q08345-2): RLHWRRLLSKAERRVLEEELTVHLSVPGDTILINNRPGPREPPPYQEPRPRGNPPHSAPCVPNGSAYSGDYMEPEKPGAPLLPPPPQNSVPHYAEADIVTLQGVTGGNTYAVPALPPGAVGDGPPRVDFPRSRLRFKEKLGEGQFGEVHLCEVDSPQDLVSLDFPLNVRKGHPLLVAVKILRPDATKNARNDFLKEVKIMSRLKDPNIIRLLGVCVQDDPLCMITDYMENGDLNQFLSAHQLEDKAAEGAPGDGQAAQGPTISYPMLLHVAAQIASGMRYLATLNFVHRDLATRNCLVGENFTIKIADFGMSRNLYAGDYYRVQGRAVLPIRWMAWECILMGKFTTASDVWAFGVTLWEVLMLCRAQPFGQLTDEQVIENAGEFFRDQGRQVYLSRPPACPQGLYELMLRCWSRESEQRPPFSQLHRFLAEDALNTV
Experimental: (§1) DDR1 and DDR2 Biochemical Assay Method
(§2) The capacity of compounds to bind to DDR1 and DDR2 was quantified using a LanthaScreen Eu Kinase Binding Assay. Recombinant human DDR1 (2.5 nM; aa440-876 containing a GST tag) and DDR2 (1.75 nM; aa427-855 containing a GST tag) were diluted in assay buffer (50 mM HEPES pH7.3, 10 mM MgCl2, 1 mM EGTA and 0.01% Tween) with various concentrations of compound in a 384-well plate and a volume of 5 uL. After a 30-minute incubation at room temperature, 2.5 uL of Eu-anti GST antibody (diluted to 1 nM in assay buffer) plus Kinase Tracer 178 (diluted in assay buffer to 5 nM for DDR1 and 10 nM for DDR2) were added to the plate. Following 60-minute incubation at room temperature, time-resolved fluorescence was measured on a BMG Labtech PHERAstar plate reader. DMSO (1%) and reference compound (1 μM) were used to generate the Max and Min assay signals, respectively. Data was analysed using a four-parameter logistic model to calculate IC50 values, with at least two independent replicates were performed for each compound.

Recombinant human DDR2 = target: T2, Recombinant human DDR2 (Homo sapiens, UniProt Q16832); experiment: LanthaScreen Eu Kinase Binding Assay, DDR2; details: recombinant human DDR2 (1.75 nM; aa427-855, GST tag), Kinase Tracer 178 10 nM, time-resolved fluorescence, at least two independent replicates; read-out: DDR2 pIC50 (converted)
T2 construct: DDR2 (1.75 nM; aa427-855 containing a GST tag)
T2 sequence (Q16832 427-855): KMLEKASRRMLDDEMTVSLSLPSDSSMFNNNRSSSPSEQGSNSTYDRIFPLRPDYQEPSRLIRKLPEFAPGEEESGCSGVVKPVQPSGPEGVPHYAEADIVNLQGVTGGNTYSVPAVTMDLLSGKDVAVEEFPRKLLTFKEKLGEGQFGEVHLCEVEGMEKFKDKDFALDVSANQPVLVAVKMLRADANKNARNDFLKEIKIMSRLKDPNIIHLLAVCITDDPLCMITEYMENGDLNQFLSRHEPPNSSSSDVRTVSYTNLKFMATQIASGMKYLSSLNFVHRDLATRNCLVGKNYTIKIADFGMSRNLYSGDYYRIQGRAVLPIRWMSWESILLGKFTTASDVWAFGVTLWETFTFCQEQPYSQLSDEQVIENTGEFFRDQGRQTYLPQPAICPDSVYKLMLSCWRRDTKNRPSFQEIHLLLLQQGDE
Experimental: as §1, §2

Compound	IC50 (Recombinant human DDR1) [µM]	IC50 (Recombinant human DDR2) [µM]
O=C(Cn1ccc2cccc(Nc3cc(Cl)c4[nH]ncc4c3)c2c1=O)NCC(F)(F)F [Example 52, 2-[8-[(7-chloro-1H-indazol-5-yl)amino]-1-oxo-2-isoquinolyl]-N-(2,2,2-trifluoroethyl) acetamide]	< 0.01	0.01 to 0.1
CN(c1ccc2c(cnn2C)c1)c1cccc2ccn(CC(=O)NCC(F)(F)F)c(=O)c12 [Example 88, 2-[8-[methyl-(1-methylindazol-5-yl)amino]-1-oxo-2-isoquinolyl]-N-(2,2,2-trifluoroethyl) acetamide]	0.01 to 0.1	0.1 to 1
Cn1ncc2cc(Nc3cccc4ccn(CC(=O)NCC(F)(F)F)c(=O)c34)cc(C#N)c21 [Example 119, 2-(8-((7-cyano-1-methyl-1H-indazol-5-yl)amino)-1-oxoisoquinolin-2(1H)-yl)-N-(2,2,2-trifluoroethyl)acetamide]	< 0.01	≥ 1
Cn1ncc2cc(Nc3cccc4ccn(CC(=O)N5CCCC(C(F)(F)F)C5)c(=O)c34)ccc21 (stereo not drawn) [Example 121]	0.01 to 0.1	0.1 to 1
Cn1ncc2cc(Nc3cccc4ccn(CC(=O)NC5CCOCC5)c(=O)c34)ccc21 [Example 15, 2-[8-[(1-methylindazol-5-yl)amino]-1-oxo-2-isoquinolyl]-N-tetrahydropyran-4-yl-acetamide]	0.1 to 1	≥ 1
Cn1ncc2cc(Nc3cccc4ccn(CC(=O)NCC(F)(F)F)c(=O)c34)cc(C(N)=O)c21 [Example 125, 1-Methyl-5-[[1-oxo-2-[2-oxo-2-(2,2,2-trifluoroethylamino)ethyl]-8-isoquinolyl]amino]indazole-7-carboxamide]	0.1 to 1	≥ 1
CN(c1ccc2c(cnn2C)c1)c1cccc2ccn(CC(=O)Nc3cnoc3)c(=O)c12 [Example 140, N-isoxazol-4-yl-2-[8-[methyl-(1-methylindazol-5-yl)amino]-1-oxo-2-isoquinolyl]acetamide]	0.01 to 0.1	0.01 to 0.1
Cn1ncc2cc(Nc3cccc4ccn(CC(=O)Nc5cnoc5)c(=O)c34)cnc21 [Example 101]	0.01 to 0.1	0.1 to 1
Cn1ncc2cc(Nc3cccc4ccn(CC(=O)N5CCC[C@H]5C(F)(F)F)c(=O)c34)ccc21 [Example 49]	< 0.01	0.01 to 0.1
CCNC(=O)Cn1ccc2cccc(Nc3ccc4c(cnn4C)c3)c2c1=O [Example 14, N-ethyl-2-[8-[(1-methylindazol-5-yl)amino]-1-oxo-2-isoquinolyl]acetamide]	0.1 to 1	≥ 1
C[C@@H]1COC[C@H](C)N1C(=O)Cn1ccc2cccc(Nc3ccc4c(cnn4C)c3)c2c1=O [Example 96, 2-{2-[(3R,5S)-3,5-dimethylmorphin-4-yl]-2-oxoethyl}-8-[(1-methyl-1H-indazol-5-yl)amino]-1,2-dihydroisoquinolin-1-one]	0.1 to 1	≥ 1
Cc1noc(C)c1NC(=O)Cn1ccc2cccc(Nc3ccc4c(cnn4C)c3)c2c1=O [Example 69, N-(3,5-dimethylisoxazol-4-yl)-2-[8-[(1-methylindazol-5-yl)amino]-1-oxo-2-isoquinolyl]acetamide]	0.1 to 1	0.1 to 1
Cn1ncc2cc(Nc3cccc4ccn(CC(=O)NC5(C(F)(F)F)CCCC5)c(=O)c34)ccc21 [Example 42, 2-[8-[(1-methylindazol-5-yl)amino]-1-oxo-2-isoquinolyl]-N-[1-(trifluoromethyl)cyclopentyl]acetamide]	0.01 to 0.1	0.1 to 1
C[C@H](NC(=O)Cn1ccc2cccc(N(C)c3ccc4c(cnn4C)c3)c2c1=O)C(F)(F)F [Example 143, 2-[8-[methyl-(1-methylindazol-5-yl)amino]-1-oxo-2-isoquinolyl]-N-[(1S)-2,2,2-trifluoro-1-methyl-ethyl]acetamide]	0.01 to 0.1	0.1 to 1

Second part, the molecule after the results:

IC50 (Recombinant human DDR1) [µM]	IC50 (Recombinant human DDR2) [µM]	Compound
0.01 to 0.1	0.1 to 1	CN(C)CCc1ccc(NC(=O)Cn2ccc3cccc(Nc4ccc5c(cnn5C)c4)c3c2=O)cc1C(F)(F)F [Example 133, N-[4-[(dimethylamino)ethyl]-3-(trifluoromethyl)phenyl]-2-[8-[(1-methylindazol-5-yl)amino]-1-oxo-2-isoquinolyl]acetamide]
0.01 to 0.1	≥ 1	Cn1cnc(NC(=O)Cn2ccc3cccc(Nc4ccc5c(cnn5C)c4)c3c2=O)c1 [Example 81, N-(1-methylimidazol-4-yl)-2-[8-[(1-methylindazol-5-yl)amino]-1-oxo-2-isoquinolyl]acetamide]
< 0.01	≥ 1	Cn1ncc2cc(Nc3cccc4ccn(CC(=O)Nc5ccc(C(F)(F)F)cc5)c(=O)c34)ccc21 [Example 30, 2-[8-[(1-methylindazol-5-yl)amino]-1-oxo-2-isoquinolyl]-N-[4-(trifluoromethyl)phenyl]acetamide]
0.01 to 0.1	0.1 to 1	Cn1ncc2cc(Nc3cccc4ccn(CC(=O)NCC(F)F)c(=O)c34)ccc21 [Example 10]
< 0.01	0.01 to 0.1	Cn1ncc2cc(Nc3cccc4ccn(CC(=O)Nc5cnoc5)c(=O)c34)ccc21 [Example 37, N-isoxazol-4-yl-2-[8-[(1-methylindazol-5-yl)amino]-1-oxo-2-isoquinolyl]acetamide]
0.01 to 0.1	0.1 to 1	Cn1ncc2cc(Nc3cccc4ccn(CC(=O)Nc5ccc(C(F)(F)F)nc5)c(=O)c34)ccc21 [Example 59, 2-[8-[(1-methylindazol-5-yl)amino]-1-oxo-2-isoquinolyl]-N-[6-(trifluoromethyl)-3-pyridyl]acetamide]
< 0.01	0.01 to 0.1	CN(C)Cc1ccc(NC(=O)Cn2ccc3cccc(Nc4ccc5c(cnn5C)c4)c3c2=O)cc1C(F)(F)F [Example 112, N-[4-[(dimethylamino)methyl]-3-(trifluoromethyl)phenyl]-2-[8-[(1-methylindazol-5-yl)amino]-1-oxo-2-isoquinolyl]acetamide]
0.01 to 0.1	0.01 to 0.1	CN1CCN(Cc2ccc(NC(=O)Cn3ccc4cccc(Nc5ccc6c(cnn6C)c5)c4c3=O)cc2C(F)(F)F)CC1 [Example 76]
0.01 to 0.1	0.01 to 0.1	CC(NC(=O)Cn1ccc2cccc(Nc3ccc4c(cnn4C)c3)c2c1=O)C(F)(F)F (stereo not drawn) [Example 12, 2-[8-[(1-methylindazol-5-y)amino]-1-oxo-2-isoquinolyl]-N-(2,2,2-trifluoro-1-methyl-ethyl)acetamide]
< 0.01	< 0.01	Cn1ncc2cc(Nc3cccc4ccn(CC(=O)Nc5cncc(C(F)(F)F)c5)c(=O)c34)ccc21 [Example 31, 2-[8-[(1-methylindazol-5-yl)amino]-1-oxo-2-isoquinolyl]-N-[5-(trifluromethyl)-3-pyridyl]acetamide]
0.01 to 0.1	0.01 to 0.1	COC(=O)c1cncc(NC(=O)Cn2ccc3cccc(Nc4ccc5c(cnn5C)c4)c3c2=O)c1 [Example 63]
0.01 to 0.1	≥ 1	Cn1ncc2cc(Nc3cccc4ccn(CC(=O)Nc5ccccc5)c(=O)c34)ccc21 [Example 39, 2-[8-[(1-methylindazol-5-yl)amino]-1-oxo-2-isoquinolyl]-N-phenyl-acetamide]
0.01 to 0.1	0.1 to 1	Cn1ncc2cc(Nc3cccc4ccn(CC(=O)Nc5ccon5)c(=O)c34)ccc21 [Example 74, N-isoxazol-3-yl-2-[8-[(1-methylindazol-5-yl)amino]-1-oxo-2-isoquinolyl]acetamide]
0.01 to 0.1	0.01 to 0.1	CC(C)[C@H](NC(=O)Cn1ccc2cccc(Nc3ccc4c(cnn4C)c3)c2c1=O)C(F)(F)F [Example 46, 2-[8-[(1-methylindazol-5-yl)amino]-1-oxo-2-isoquinolyl]-N-[(S)-2-methyl-1-(trifluoromethyl)propyl]acetamide]
0.01 to 0.1	0.1 to 1	Cn1ncc2cc(Nc3cccc4ccn(CC(=O)NC(C5CC5)C(F)(F)F)c(=O)c34)ccc21 (stereo not drawn) [Example 33, N-(1-cyclopropyl-2,2,2-trifluoro-ethly)-2-[8-[(1-methylindazol-5-yl)amino]-1-oxo-2-isoquinolyl]acetamide]
0.1 to 1	≥ 1	Cn1ncc2cc(Nc3cccc4ccn(CC(=O)Nc5cncnc5)c(=O)c34)ccc21 [Example 25, 2-[8-[(1-methylindazol-5-yl)amino]-1-oxo-2-isoquinolyl]-N-pyrimidin-5-yl-acetamide]
